Assay results as given in patent US9084719B2, “Compositions and method for treating infection in cattle and swine” (Intervet Inc., priority 2003, dated 2015).
Read-outs that look alike come from different tables or passages of the source.

Assay: Plasma levels of florfenicol / pharmacokinetic analysis in cattle after subcutaneous administration
Type: in vivo
Conditions: bovine, sc, 40 mg/kg, subcutaneous florfenicol solution, 40 mg per kg of body weight
Protocol: Twenty-four head of cattle were used in the study as described below and were administered the formulations of the present invention. Serial blood samples were drawn at time 0 prior to dosing, then at 0.5, 1, 3, 6, 9, 12, 24, 36, 48, 60 and 72 hours post injection. The animals received one of the following treatment regimens.
The study was carried out in bovines of approximately 6 months of age or more that weigh about 125 kg or more. Selection was based on health status appearance, tractability and body weight. […] Animals that had received medication or have participated in another study in the previous 14 days were excluded from this study.
Plasma Levels of florfenicol were taken as follows: Approximately 10 mL of blood was collected from each calf by jugular venipuncture into a Vacutainer® tube containing sodium EDTA and processed for plasma.
Pharmacokinetic Analysis was carried out as follows: Plasma concentrations of florfenicol was reported in the appropriate units (i.e. μg/ml or ng/mL). Plasma florfenicol concentration versus time data was graphically presented for each individual animal, and as mean concentrations for the overall sample population.

CS(=O)(=O)c1ccc([C@@H](O)[C@@H](CF)NC(=O)C(Cl)Cl)cc1 [florfenicol, D-(threo)-1-p-methylsulfonyl phenyl-2-dichloroacetamido-3-fluoro-1-propanol]
Cmax (FIG. 1, six cattle, read-out: Mean peak concentration (Cmax)): 6370 ng/mL
Tmax (FIG. 1, six cattle, read-out: Mean time to peak concentration (Tmax)): 5.5 h
Cmax (FIG. 1, six cattle, read-out: Range of peak concentration (Cmax)): 5080 to 7000 ng/mL
Tmax (FIG. 1, six cattle, read-out: Range of time to peak concentration (Tmax)): 3 to 6 h
Cmax (FIG. 2, six cattle, read-out: Mean peak concentration (Cmax)): 4250 ng/mL
Tmax (FIG. 2, six cattle, read-out: Mean time to peak concentration (Tmax)): 3.67 h
Cmax (FIG. 2, six cattle, read-out: Range of peak concentration (Cmax)): 3460 to 5000 ng/mL
Tmax (FIG. 2, six cattle, read-out: Range of time to peak concentration (Tmax)): 1 to 9 h
